US8962674B2 (Tokyo Institute of Technology, priority 2006, dated 2015)

SMILES | melting point [°C]
CCN(CC)c1ccc(/C=C/C(=O)CC(=O)/C=C/c2ccc(N(CC)CC)cc2OCC=C(C)C)c(OCC=C(C)C)c1 [CU431, (1E,6E)-1,7-bis(4-diethylamino-2-prenyloxyphenyl)hepta-1,6-diene-3,5-dione] | 107 to 113
CCN(CC)c1ccc(/C=C/C(=O)CC(=O)/C=C/c2ccc(N(CC)CC)cc2OC(C)C)c(OC(C)C)c1 [CU433, (1E,6E)-1,7-bis(4-diethylamino-2-isopropyloxyphenyl)hepta-1,6-diene-3,5-dione] | 63 to 66
CCN(CC)c1ccc(/C=C/C(=O)CC(=O)/C=C/c2ccc(O)c(OC)c2)c(OC(C)C)c1 [CU439, (1E,6E)-1-(4-diethylamino-2-isopropyloxyphenyl)-7-(4-hydroxy-3-methoxyphenyl)hepta-1,6-diene-3,5-dione] | 156 to 160
O=C(/C=C/c1ccc(O)cc1)CC(=O)/C=C/c1ccc2oc(=O)ccc2c1 [CU445, (1E,6E)-1-(4-hydroxyphenyl)-7-(coumarin-6-yl)hepta-1,6-diene-3,5-dione] | 240 to 246
COCOc1ccc(OC)cc1/C=C/C(=O)CC(=O)/C=C/c1cc(OC)ccc1OCOC [CU447, (1E,6E)-1,7-bis[5-methoxy-2-(methoxymethoxy)phenyl]hepta-1,6-diene-3,5-dione] | 140 to 143
CCN(CC)c1ccc(/C=C/C(=O)CC(=O)/C=C/c2ccc(O)cc2)c(OCc2ccc(OC)cc2)c1 [CU448, (1E,6E)-1-[4-diethylamino-2-(4-methoxybenzyloxy)phenyl]-7-(4-hydroxyphenyl)hepta-1,6-diene-3,5-dione] | 71 to 78
CCN(CC)c1ccc(/C=C/C(=O)CC(=O)/C=C/c2ccc(O)cc2)c(OCc2c(F)cccc2Cl)c1 [CU450, (1E,6E)-1-[2-(2-chloro-6-fluorobenzyloxy)-4-diethylaminophenyl]-7-(4-hydroxyphenyl)hepta-1,6-diene-3,5-dione] | 172 to 175
CCN(CC)c1ccc(/C=C/C(=O)CC(=O)/C=C/c2ccc(O)cc2)c(OCc2ccc(Cl)cc2Cl)c1 [CU451, (1E,6E)-1-[2-(2,4-dichlorobenzyloxy)-4-diethylaminophenyl]-7-(4-hydroxyphenyl)hepta-1,6-diene-3,5-dione] | 73 to 80
CCN(CC)c1ccc(/C=C/C(=O)CC(=O)/C=C/c2ccc(O)cc2)c(OCc2ccc(C(C)(C)C)cc2)c1 [CU452, (1E,6E)-1-[2-(4-tert-butylbenzyloxy)-4-diethylaminophenyl]-7-(4-hydroxyphenyl)hepta-1,6-diene-3,5-dione] | 187 to 190
COCOc1ccc(OC)cc1/C=C/C(=O)CC(=O)/C=C/c1cc(OC)ccc1O [CU456, (1E,6E)-1-(2-hydroxy-5-methoxyphenyl)-7-[5-methoxy-2-(methoxymethoxy)phenyl]hepta-1,6-diene-3,5-dione] | 131 to 138
O=C(/C=C/c1ccc(O)cc1)CC(=O)/C=C/c1cc(Cl)ccc1[N+](=O)[O-] [CU465, (1E,6E)-1-(5-chloro-2-nitrophenyl)-7-(4-hydroxyphenyl)hepta-1,6-diene-3,5-dione] | 241 to 250
O=C(/C=C/c1ccc(O)cc1)CC(=O)/C=C/c1cc(F)cc(F)c1 [CU468, (1E,6E)-1-(3,5-difluorophenyl)-7-(4-hydroxyphenyl)hepta-1,6-diene-3,5-dione] | 153 to 156
O=C(/C=C/c1ccc(O)cc1)CC(=O)/C=C/c1ccccc1-c1ccccc1 [CU472, (1E,6E)-1-(biphenyl-2-yl)-7-(4-hydroxyphenyl)hepta-1,6-diene-3,5-dione] | 180 to 188
O=C(/C=C/c1ccc(O)cc1)CC(=O)/C=C/c1cc(C(F)(F)F)ccc1F [CU473, (1E,6E)-1-(2-fluoro-5-trifluoromethylphenyl)-7-(4-hydroxyphenyl)hepta-1,6-diene-3,5-dione] | 168 to 174
CCCN(CCC)C(=O)c1cccc(/C=C/C(=O)CC(=O)/C=C/c2ccc(O)cc2)c1 [CU474, (1E,6E)-1-[3-(di-n-propylaminocarbonyl)phenyl]-7-(4-hydroxyphenyl)hepta-1,6-diene-3,5-dione] | 159 to 165
CN(C)S(=O)(=O)c1ccccc1/C=C/C(=O)CC(=O)/C=C/c1ccc(O)cc1 [CU480, (1E,6E)-1-[2-(dimethylaminosulfonyl)phenyl]-7-(4-hydroxyphenyl)hepta-1,6-diene-3,5-dione] | 86 to 90

Other lines, results leading:

melting point [°C] | SMILES
60 to 65 | CCN(CC)c1ccc(/C=C/C(=O)CC(=O)/C=C/c2ccc(O)c(OC)c2)c(OCc2ccccc2)c1 [CU437, (1E,6E)-1-(2-benzyloxy-4-diethylaminophenyl)-7-(4-hydroxy-3-methoxyphenyl)hepta-1,6-diene-3,5-dione]
72 to 77 | CCN(CC)c1ccc(/C=C/C(=O)CC(=O)/C=C/c2ccc(OC)c(O)c2)c(OCc2ccccc2)c1 [CU438, (1E,6E)-1-(2-benzyloxy-4-diethylaminophenyl)-7-(3-hydroxy-4-methoxyphenyl)hepta-1,6-diene-3,5-dione]
117 to 120 | CCN(CC)c1ccc(/C=C/C(=O)CC(=O)/C=C/c2ccc(OC)c(O)c2)c(OC(C)C)c1 [CU440, (1E,6E)-1-(4-diethylamino-2-isopropyloxyphenyl)-7-(3-hydroxy-4-methoxyphenyl)hepta-1,6-diene-3,5-dione]
139 to 143 | CCN(CC)c1ccc(/C=C/C(=O)CC(=O)/C=C/c2ccc(OC)c(O)c2)c(OCC=C(C)C)c1 [CU442, (1E,6E)-1-(4-diethylamino-2-prenyloxyphenyl)-7-(3-hydroxy-4-methoxyphenyl)hepta-1,6-diene-3,5-dione]
180 to 184 | COc1cc(/C=C/C(=O)CC(=O)/C=C/c2ccc3ccn(Cc4ccccc4)c3c2)ccc1O [CU443, (1E,6E)-1-(1-benzyl-1H-indol-6-yl)-7-(4-hydroxy-3-methoxyphenyl)hepta-1,6-diene-3,5-dione]
190 to 194 | COc1ccc(/C=C/C(=O)CC(=O)/C=C/c2ccc3ccn(Cc4ccccc4)c3c2)cc1O [CU444, (1E,6E)-1-(1-benzyl-1H-indol-6-yl)-7-(3-hydroxy-4-methoxyphenyl)hepta-1,6-diene-3,5-dione]
180 to 186 | CCN(CC)c1ccc(/C=C/C(=O)CC(=O)/C=C/c2ccc(O)cc2)c(OCc2cccnc2)c1 [CU449, (1E,6E)-1-[4-diethylamino-2-(pyridin-3-ylmethoxy)phenyl]-7-(4-hydroxyphenyl)hepta-1,6-diene-3,5-dione]
83 to 87 | COc1cc(/C=C/C(=O)CC(=O)/C=C/c2cccc3cccnc23)ccc1O [CU453, (1E,6E)-1-(4-hydroxy-3-methoxyphenyl)-7-(quinolin-8-yl)hepta-1,6-diene-3,5-dione]
80 to 85 | COc1ccc(/C=C/C(=O)CC(=O)/C=C/c2cccc3cccnc23)cc1O [CU454, (1E,6E)-1-(3-hydroxy-4-methoxyphenyl)-7-(quinolin-8-yl)hepta-1,6-diene-3,5-dione]
232 to 237 | COc1cc(/C=C/C(=O)CC(=O)/C=C/c2c[nH]c3cccc([N+](=O)[O-])c23)ccc1O [CU462, (1E,6E)-1-(4-hydroxy-3-methoxyphenyl)-7-(4-nitro-1H-indol-3-yl)hepta-1,6-diene-3,5-dione]
226 to 233 | COc1ccc(/C=C/C(=O)CC(=O)/C=C/c2c[nH]c3cccc([N+](=O)[O-])c23)cc1O [CU463, (1E,6E)-1-(3-hydroxy-4-methoxyphenyl)-7-(4-nitro-1H-indol-3-yl)hepta-1,6-diene-3,5-dione]
156 to 160 | O=C(/C=C/c1ccc(O)cc1)CC(=O)/C=C/c1cccc(Br)c1 [CU464, (1E,6E)-1-(3-bromophenyl)-7-(4-hydroxyphenyl)hepta-1,6-diene-3,5-dione]
177 to 203 | O=C(/C=C/c1ccc(O)cc1)CC(=O)/C=C/c1cc(Br)ccc1F [CU466, (1E,6E)-1-(5-bromo-2-fluorophenyl)-7-(4-hydroxyphenyl)hepta-1,6-diene-3,5-dione]
181 to 185 | O=C(/C=C/c1ccc(O)cc1)CC(=O)/C=C/c1ccccc1C(F)(F)F [CU467, (1E,6E)-1-(4-hydroxyphenyl)-7-(2-trifluoromethylphenyl)hepta-1,6-diene-3,5-dione]
223 to 232 | O=C(/C=C/c1ccc(O)cc1)CC(=O)/C=C/c1ccc(Br)cc1F [CU471, (1E,6E)-1-(4-bromo-2-fluorophenyl)-7-(4-hydroxyphenyl)hepta-1,6-diene-3,5-dione]
145 to 150 | COC(=O)c1ccccc1/C=C/C(=O)CC(=O)/C=C/c1ccc(O)cc1 [CU478, (1E,6E)-1-(4-hydroxyphenyl)-7-[2-(methoxycarbonyl)phenyl]hepta-1,6-diene-3,5-dione]
210 to 218 | CN(C)C(=O)c1ccccc1/C=C/C(=O)CC(=O)/C=C/c1ccc(O)cc1 [CU479, (1E,6E)-1-[2-(dimethylaminocarbonyl)phenyl]-7-(4-hydroxyphenyl)hepta-1,6-diene-3,5-dione]
151 to 155 | COc1ccc([N+](=O)[O-])c(/C=C/C(=O)CC(=O)/C=C/c2ccc(O)cc2)c1 [CU481, (1E,6E)-1-(4-hydroxyphenyl)-7-(5-methoxy-2-nitrophenyl)hepta-1,6-diene-3,5-dione]
186 to 193 | Nc1ccccc1/C=C/C(=O)CC(=O)/C=C/c1ccc(O)cc1 [CU482, (1E,6E)-1-(2-aminophenyl)-7-(4-hydroxyphenyl)hepta-1,6-diene-3,5-dione]
163 to 167 | CS(=O)(=O)Oc1ccccc1/C=C/C(=O)CC(=O)/C=C/c1ccc(O)cc1 [CU483, (1E,6E)-1-(4-hydroxyphenyl)-7-[2-(methylsulfonyloxy)phenyl]hepta-1,6-diene-3,5-dione]
157 to 160 | CSc1ccccc1/C=C/C(=O)CC(=O)/C=C/c1ccc(O)cc1 [CU484, (1E,6E)-1-(4-hydroxyphenyl)-7-[2-(methylthio)phenyl]hepta-1,6-diene-3,5-dione]
155 to 159 | O=C(/C=C/c1ccc(O)cc1)CC(=O)/C=C/c1ccccc1Br [CU486, (1E,6E)-1-(2-bromophenyl)-7-(4-hydroxyphenyl)hepta-1,6-diene-3,5-dione]
